{
  "source": "patent US12544395B2",
  "about": "“Combination compositions comprising a beta-lactamase inhibitor and uses thereof” (priority 2018, dated 2026)",
  "assay_type_in_all_cases": "cell-based",
  "key": {"[1]": {"tested_on": "K. oxytoca 169219", "assay": "Broth microdilution MIC (strain enzymes: TEM-1, CTXM-15)"}, "[2]": {"tested_on": "K. pneumoniae 153239", "assay": "Broth microdilution MIC (strain enzymes: SHV-11, TEM-1)"}, "[3]": {"tested_on": "K. pneumoniae 170375", "assay": "Broth microdilution MIC (strain enzymes: SHV-12, CTX-M15 and TEM-1)"}, "[4]": {"tested_on": "K. pneumoniae 3151", "assay": "Broth microdilution MIC (strain enzymes: SHV-12, TEM-1)"}, "[5]": {"tested_on": "K. pneumoniae 329633", "assay": "Broth microdilution MIC (strain enzymes: SHV-5, TEM-1)"}, "[6]": {"tested_on": "K. pneumoniae KP 8", "assay": "Broth microdilution MIC (strain enzymes: TEM-10, TEM-1, CTX-M15)"}},
  "data": [
    {"smiles": "CCC(=O)N[C@H]1Cc2cccc(C(=O)O)c2OB1O", "note": "[Compound 2, (R)-2-hydroxy-3-propionamido-3,4-dihydro-2H-benzo[e][1,2]oxaborinine-8-carboxylic acid]", "values": [
      {"measurement": "MIC of cefalexin (LEX)", "setting": "[1]; with inhibitor at 2 μg/mL", "value": 0.5, "unit": "µg/mL"},
      {"measurement": "MIC of cefdinir (CDR)", "setting": "[1]; with inhibitor at 2 μg/mL", "value": 0.5, "unit": "µg/mL"},
      {"measurement": "MIC of cefixime (CFM)", "setting": "[1]; with inhibitor at 2 μg/mL", "value": 0.125, "unit": "µg/mL"},
      {"measurement": "MIC of ceftibuten (CTB)", "setting": "[1]; with inhibitor at 2 μg/mL", "value": 0.0149, "unit": "µg/mL"},
      {"measurement": "MIC of cefalexin (LEX)", "setting": "[1]; with inhibitor at 4 μg/mL", "value": 0.5, "unit": "µg/mL"},
      {"measurement": "MIC of cefdinir (CDR)", "setting": "[1]; with inhibitor at 4 μg/mL", "value": 0.5, "unit": "µg/mL"},
      {"measurement": "MIC of cefixime (CFM)", "setting": "[1]; with inhibitor at 4 μg/mL", "value": 0.125, "unit": "µg/mL"},
      {"measurement": "MIC of ceftibuten (CTB)", "setting": "[1]; with inhibitor at 4 μg/mL", "value": 0.0149, "unit": "µg/mL"},
      {"measurement": "MIC of cefalexin (LEX)", "setting": "[2]; with inhibitor at 1 μg/mL", "value": 0.5, "unit": "µg/mL"},
      {"measurement": "MIC of cefdinir (CDR)", "setting": "[2]; with inhibitor at 1 μg/mL", "value": 0.5, "unit": "µg/mL"},
      {"measurement": "MIC of cefixime (CFM)", "setting": "[2]; with inhibitor at 1 μg/mL", "value": 0.125, "unit": "µg/mL"},
      {"measurement": "MIC of ceftibuten (CTB)", "setting": "[2]; with inhibitor at 1 μg/mL", "value": 0.06, "unit": "µg/mL"},
      {"measurement": "MIC of cefalexin (LEX)", "setting": "[2]; with inhibitor at 2 μg/mL", "value": 0.25, "unit": "µg/mL"},
      {"measurement": "MIC of cefdinir (CDR)", "setting": "[2]; with inhibitor at 2 μg/mL", "value": 0.25, "unit": "µg/mL"},
      {"measurement": "MIC of cefixime (CFM)", "setting": "[2]; with inhibitor at 2 μg/mL", "value": 0.5, "unit": "µg/mL"},
      {"measurement": "MIC of ceftibuten (CTB)", "setting": "[2]; with inhibitor at 2 μg/mL", "value": 0.125, "unit": "µg/mL"},
      {"measurement": "MIC of cefalexin (LEX)", "setting": "[2]; with inhibitor at 4 μg/mL", "value": 0.25, "unit": "µg/mL"},
      {"measurement": "MIC of cefdinir (CDR)", "setting": "[2]; with inhibitor at 4 μg/mL", "value": 0.25, "unit": "µg/mL"},
      {"measurement": "MIC of cefixime (CFM)", "setting": "[2]; with inhibitor at 4 μg/mL", "value": 0.25, "unit": "µg/mL"},
      {"measurement": "MIC of ceftibuten (CTB)", "setting": "[2]; with inhibitor at 4 μg/mL", "value": 0.06, "unit": "µg/mL"},
      {"measurement": "MIC of cefalexin (LEX)", "setting": "[3]; with inhibitor at 1 μg/mL", "value": 8, "unit": "µg/mL"},
      {"measurement": "MIC of cefdinir (CDR)", "setting": "[3]; with inhibitor at 1 μg/mL", "value": 8, "unit": "µg/mL"},
      {"measurement": "MIC of cefixime (CFM)", "setting": "[3]; with inhibitor at 1 μg/mL", "value": 1, "unit": "µg/mL"},
      {"measurement": "MIC of ceftibuten (CTB)", "setting": "[3]; with inhibitor at 1 μg/mL", "value": 0.06, "unit": "µg/mL"},
      {"measurement": "MIC of cefalexin (LEX)", "setting": "[3]; with inhibitor at 2 μg/mL", "value": 4, "unit": "µg/mL"},
      {"measurement": "MIC of cefdinir (CDR)", "setting": "[3]; with inhibitor at 2 μg/mL", "value": 4, "unit": "µg/mL"},
      {"measurement": "MIC of cefixime (CFM)", "setting": "[3]; with inhibitor at 2 μg/mL", "value": 1, "unit": "µg/mL"},
      {"measurement": "MIC of ceftibuten (CTB)", "setting": "[3]; with inhibitor at 2 μg/mL", "value": 0.06, "unit": "µg/mL"},
      {"measurement": "MIC of cefalexin (LEX)", "setting": "[3]; with inhibitor at 4 μg/mL", "value": 2, "unit": "µg/mL"},
      {"measurement": "MIC of cefdinir (CDR)", "setting": "[3]; with inhibitor at 4 μg/mL", "value": 2, "unit": "µg/mL"},
      {"measurement": "MIC of cefixime (CFM)", "setting": "[3]; with inhibitor at 4 μg/mL", "value": 1, "unit": "µg/mL"},
      {"measurement": "MIC of ceftibuten (CTB)", "setting": "[3]; with inhibitor at 4 μg/mL", "value": 0.06, "unit": "µg/mL"},
      {"measurement": "MIC of cefalexin (LEX)", "setting": "[4]; with inhibitor at 1 μg/mL", "value": 2, "unit": "µg/mL"},
      {"measurement": "MIC of cefdinir (CDR)", "setting": "[4]; with inhibitor at 1 μg/mL", "value": 2, "unit": "µg/mL"},
      {"measurement": "MIC of cefixime (CFM)", "setting": "[4]; with inhibitor at 1 μg/mL", "value": 16, "unit": "µg/mL"},
      {"measurement": "MIC of ceftibuten (CTB)", "setting": "[4]; with inhibitor at 1 μg/mL", "value": 1, "unit": "µg/mL"},
      {"measurement": "MIC of cefalexin (LEX)", "setting": "[4]; with inhibitor at 2 μg/mL", "value": 1, "unit": "µg/mL"},
      {"measurement": "MIC of cefdinir (CDR)", "setting": "[4]; with inhibitor at 2 μg/mL", "value": 1, "unit": "µg/mL"},
      {"measurement": "MIC of cefixime (CFM)", "setting": "[4]; with inhibitor at 2 μg/mL", "value": 8, "unit": "µg/mL"},
      {"measurement": "MIC of ceftibuten (CTB)", "setting": "[4]; with inhibitor at 2 μg/mL", "value": 0.25, "unit": "µg/mL"},
      {"measurement": "MIC of cefalexin (LEX)", "setting": "[4]; with inhibitor at 4 μg/mL", "value": 0.5, "unit": "µg/mL"},
      {"measurement": "MIC of cefdinir (CDR)", "setting": "[4]; with inhibitor at 4 μg/mL", "value": 0.5, "unit": "µg/mL"},
      {"measurement": "MIC of cefixime (CFM)", "setting": "[4]; with inhibitor at 4 μg/mL", "value": 2, "unit": "µg/mL"},
      {"measurement": "MIC of ceftibuten (CTB)", "setting": "[4]; with inhibitor at 4 μg/mL", "value": 0.25, "unit": "µg/mL"},
      {"measurement": "MIC of cefalexin (LEX)", "setting": "[5]; with inhibitor at 1 μg/mL", "value": 0.25, "unit": "µg/mL"},
      {"measurement": "MIC of cefdinir (CDR)", "setting": "[5]; with inhibitor at 1 μg/mL", "value": 0.25, "unit": "µg/mL"},
      {"measurement": "MIC of cefixime (CFM)", "setting": "[5]; with inhibitor at 1 μg/mL", "value": 1, "unit": "µg/mL"},
      {"measurement": "MIC of ceftibuten (CTB)", "setting": "[5]; with inhibitor at 1 μg/mL", "value": 0.06, "unit": "µg/mL"},
      {"measurement": "MIC of cefalexin (LEX)", "setting": "[5]; with inhibitor at 2 μg/mL", "value": 0.25, "unit": "µg/mL"},
      {"measurement": "MIC of cefdinir (CDR)", "setting": "[5]; with inhibitor at 2 μg/mL", "value": 0.25, "unit": "µg/mL"},
      {"measurement": "MIC of cefixime (CFM)", "setting": "[5]; with inhibitor at 2 μg/mL", "value": 0.5, "unit": "µg/mL"},
      {"measurement": "MIC of ceftibuten (CTB)", "setting": "[5]; with inhibitor at 2 μg/mL", "value": 0.06, "unit": "µg/mL"},
      {"measurement": "MIC of cefalexin (LEX)", "setting": "[5]; with inhibitor at 4 μg/mL", "value": 1, "unit": "µg/mL"},
      {"measurement": "MIC of cefdinir (CDR)", "setting": "[5]; with inhibitor at 4 μg/mL", "value": 1, "unit": "µg/mL"},
      {"measurement": "MIC of cefixime (CFM)", "setting": "[5]; with inhibitor at 4 μg/mL", "value": 0.5, "unit": "µg/mL"},
      {"measurement": "MIC of ceftibuten (CTB)", "setting": "[5]; with inhibitor at 4 μg/mL", "value": 0.06, "unit": "µg/mL"},
      {"measurement": "MIC of cefalexin (LEX)", "setting": "[6]; with inhibitor at 1 μg/mL", "value": 0.25, "unit": "µg/mL"},
      {"measurement": "MIC of cefdinir (CDR)", "setting": "[6]; with inhibitor at 1 μg/mL", "value": 0.25, "unit": "µg/mL"},
      {"measurement": "MIC of cefixime (CFM)", "setting": "[6]; with inhibitor at 1 μg/mL", "value": 0.25, "unit": "µg/mL"},
      {"measurement": "MIC of ceftibuten (CTB)", "setting": "[6]; with inhibitor at 1 μg/mL", "value": 0.06, "unit": "µg/mL"},
      {"measurement": "MIC of cefalexin (LEX)", "setting": "[6]; with inhibitor at 2 μg/mL", "value": 0.125, "unit": "µg/mL"},
      {"measurement": "MIC of cefdinir (CDR)", "setting": "[6]; with inhibitor at 2 μg/mL", "value": 0.125, "unit": "µg/mL"},
      {"measurement": "MIC of cefixime (CFM)", "setting": "[6]; with inhibitor at 2 μg/mL", "value": 0.125, "unit": "µg/mL"},
      {"measurement": "MIC of ceftibuten (CTB)", "setting": "[6]; with inhibitor at 2 μg/mL", "value": 0.03, "unit": "µg/mL"},
      {"measurement": "MIC of cefalexin (LEX)", "setting": "[6]; with inhibitor at 4 μg/mL", "value": 0.125, "unit": "µg/mL"},
      {"measurement": "MIC of cefdinir (CDR)", "setting": "[6]; with inhibitor at 4 μg/mL", "value": 0.125, "unit": "µg/mL"},
      {"measurement": "MIC of cefixime (CFM)", "setting": "[6]; with inhibitor at 4 μg/mL", "value": 0.125, "unit": "µg/mL"},
      {"measurement": "MIC of ceftibuten (CTB)", "setting": "[6]; with inhibitor at 4 μg/mL", "value": 0.03, "unit": "µg/mL"}
    ]}
  ]
}
